Assay results taken from ChEMBL document CHEMBL5055685, “Discovery of the First Potent IDO1/IDO2 Dual Inhibitors: A Promising Strategy for Cancer Immunotherapy” (J Med Chem, 2021).
Activity calls are given as the source filed them. No cut-off for these calls is given here.

Columns and labels:
PBMC = assay: Inhibition of IDO1/IDO2 in IFNgamma/LPS-stimulated human PBMCs assessed as reduction in kynurenine formation at 0.0001 to 10 uM pretreated with compound for 15 mins followed by IFNgamma/LPS stimulation by LC-MS/MS analysis; type: tissue-based; settings: dose 0.0001-10 µM
[1] = Half life in Sprague-Dawley rat at 5 mg/kg, iv; type: ADME, organism-based; settings: in vivo
[2] = Clearance in dog liver microsomes; type: ADME, Canis lupus familiaris, Microsome; settings: read-out: CLH
[3] = Protein binding in monkey plasma by equilibrium dialysis by equilibrium dialysis; type: ADME, cell-free, Macaca mulatta; settings: rhesus monkey, read-out: PPB (converted)
[4] = Protein binding in Beagle dog plasma assessed as fraction unbound by equilibrium dialysis; type: ADME, cell-free, Canis lupus familiaris
[5] = target: Tyrosine-protein kinase ABL1 (Homo sapiens) (UniProt P00519); assay: Inhibition of ABL1 (unknown origin) at 1 uM
[6] = target: RAC-beta serine/threonine-protein kinase (Homo sapiens) (UniProt P31751); assay: Inhibition of AKT2 (unknown origin) at 1 uM
[7] = target: Calcium/calmodulin-dependent protein kinase type 1 (Homo sapiens) (UniProt Q14012); assay: Inhibition of CAMK1A (unknown origin) at 1 uM
Chain of Calcium/calmodulin-dependent protein kinase type 1 (Homo sapiens) (Q14012 whole entry, looked up): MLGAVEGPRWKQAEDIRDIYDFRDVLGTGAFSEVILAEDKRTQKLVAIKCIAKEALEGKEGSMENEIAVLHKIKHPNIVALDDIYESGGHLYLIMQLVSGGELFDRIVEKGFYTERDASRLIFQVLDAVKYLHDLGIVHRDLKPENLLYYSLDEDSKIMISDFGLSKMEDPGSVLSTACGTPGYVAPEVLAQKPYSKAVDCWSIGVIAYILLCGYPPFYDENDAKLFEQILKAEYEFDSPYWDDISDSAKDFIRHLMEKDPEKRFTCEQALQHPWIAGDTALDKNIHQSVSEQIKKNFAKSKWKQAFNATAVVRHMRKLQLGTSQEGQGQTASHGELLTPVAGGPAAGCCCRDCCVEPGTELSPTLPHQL

[8] = target: Calcium/calmodulin-dependent protein kinase kinase 2 (Homo sapiens) (UniProt Q96RR4); assay: Inhibition of CAMKK2 (unknown origin) at 1 uM
[9] = target: CDK2/Cyclin A2 (Homo sapiens) (UniProt P24941+P20248); assay: Inhibition of CDK2/cyclin-A (unknown origin) at 1 uM; type: protein-complex assay
[10] = target: Cyclin-dependent kinase 2/cyclin E1 (Homo sapiens) (UniProt P24864+P24941); assay: Inhibition of CDK2/cyclin-E (unknown origin) at 1 uM; type: protein-complex assay
[11] = target: Mitogen-activated protein kinase kinase kinase 12 (Homo sapiens) (UniProt Q12852); assay: Inhibition of DLK (unknown origin) at 1 uM
[12] = target: Ephrin type-A receptor 6 (Homo sapiens) (UniProt Q9UF33); assay: Inhibition of EPHA6 (unknown origin) at 1 uM
[13] = target: Mitogen-activated protein kinase 3 (Homo sapiens) (UniProt P27361); assay: Inhibition of ERK1 (unknown origin) at 1 uM
[14] = target: Mitogen-activated protein kinase 1 (Homo sapiens) (UniProt P28482); assay: Inhibition of ERK2 (unknown origin) at 1 uM
Chain of Mitogen-activated protein kinase 1 (Homo sapiens) (P28482 whole entry): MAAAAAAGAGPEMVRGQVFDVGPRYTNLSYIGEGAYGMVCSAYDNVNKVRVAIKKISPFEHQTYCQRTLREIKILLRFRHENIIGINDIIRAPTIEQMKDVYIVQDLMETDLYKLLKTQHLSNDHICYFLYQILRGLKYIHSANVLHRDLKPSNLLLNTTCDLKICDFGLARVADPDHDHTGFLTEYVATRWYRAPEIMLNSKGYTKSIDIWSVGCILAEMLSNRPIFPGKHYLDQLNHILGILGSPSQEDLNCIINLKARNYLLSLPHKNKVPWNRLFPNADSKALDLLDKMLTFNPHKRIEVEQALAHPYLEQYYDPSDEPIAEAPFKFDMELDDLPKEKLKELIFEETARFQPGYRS

[15] = target: Focal adhesion kinase 1 (Homo sapiens) (UniProt Q05397); assay: Inhibition of FAK (unknown origin) at 1 uM
[16] = target: Receptor-type tyrosine-protein kinase FLT3 (Homo sapiens) (UniProt P36888); assay: Inhibition of FLT3 (unknown origin) at 1 uM
[17] = target: Macrophage colony-stimulating factor 1 receptor (Homo sapiens) (UniProt P07333); assay: Inhibition of FMS (unknown origin) at 1 uM
[18] = target: G protein-coupled receptor kinase 4 (Homo sapiens) (UniProt P32298); assay: Inhibition of GRK4 (unknown origin) at 1 uM
[19] = target: G protein-coupled receptor kinase 6 (Homo sapiens) (UniProt P43250); assay: Inhibition of GRK6 (unknown origin) at 1 uM
Chain of G protein-coupled receptor kinase 6 (Homo sapiens) (P43250 whole entry, looked up): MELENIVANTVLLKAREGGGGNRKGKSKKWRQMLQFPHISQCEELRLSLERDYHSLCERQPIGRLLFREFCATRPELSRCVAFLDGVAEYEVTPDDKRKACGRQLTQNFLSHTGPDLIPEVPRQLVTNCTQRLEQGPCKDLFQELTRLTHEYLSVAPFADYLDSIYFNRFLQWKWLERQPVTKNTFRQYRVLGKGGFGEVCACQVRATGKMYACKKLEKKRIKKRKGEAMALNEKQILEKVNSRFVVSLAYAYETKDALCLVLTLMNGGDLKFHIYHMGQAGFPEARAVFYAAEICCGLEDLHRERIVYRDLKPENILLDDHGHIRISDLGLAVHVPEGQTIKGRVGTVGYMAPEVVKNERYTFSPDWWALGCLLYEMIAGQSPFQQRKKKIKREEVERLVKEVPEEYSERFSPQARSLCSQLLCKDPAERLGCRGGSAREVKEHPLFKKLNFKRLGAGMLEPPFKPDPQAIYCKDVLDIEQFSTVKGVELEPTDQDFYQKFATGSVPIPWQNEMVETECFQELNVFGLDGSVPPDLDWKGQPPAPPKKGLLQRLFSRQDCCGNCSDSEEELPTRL

[20] = target: Tyrosine-protein kinase ITK/TSK (Homo sapiens) (UniProt Q08881); assay: Inhibition of ITK (unknown origin) at 1 uM
[21] = target: Tyrosine-protein kinase Lck (Homo sapiens) (UniProt P06239); assay: Inhibition of LCK (unknown origin) at 1 uM
[22] = target: LIM domain kinase 1 (Homo sapiens) (UniProt P53667); assay: Inhibition of LIMK1 (unknown origin) at 1 uM
[23] = target: MAP kinase-activated protein kinase 2 (Homo sapiens) (UniProt P49137); assay: Inhibition of MAPKAPK2 (unknown origin) at 1 uM
[24] = target: Dual specificity mitogen-activated protein kinase kinase 2 (Homo sapiens) (UniProt P36507); assay: Inhibition of MEK2 (unknown origin) at 1 uM
[25] = target: Mitogen-activated protein kinase kinase kinase 1 (Homo sapiens) (UniProt Q13233); assay: Inhibition of MEKK1 (unknown origin) at 1 uM
[26] = target: MAP kinase-interacting serine/threonine-protein kinase 1 (Homo sapiens) (UniProt Q9BUB5); assay: Inhibition of MNK1 (unknown origin) at 1 uM
Chain of MAP kinase-interacting serine/threonine-protein kinase 1 (Homo sapiens) (Q9BUB5 whole entry, looked up): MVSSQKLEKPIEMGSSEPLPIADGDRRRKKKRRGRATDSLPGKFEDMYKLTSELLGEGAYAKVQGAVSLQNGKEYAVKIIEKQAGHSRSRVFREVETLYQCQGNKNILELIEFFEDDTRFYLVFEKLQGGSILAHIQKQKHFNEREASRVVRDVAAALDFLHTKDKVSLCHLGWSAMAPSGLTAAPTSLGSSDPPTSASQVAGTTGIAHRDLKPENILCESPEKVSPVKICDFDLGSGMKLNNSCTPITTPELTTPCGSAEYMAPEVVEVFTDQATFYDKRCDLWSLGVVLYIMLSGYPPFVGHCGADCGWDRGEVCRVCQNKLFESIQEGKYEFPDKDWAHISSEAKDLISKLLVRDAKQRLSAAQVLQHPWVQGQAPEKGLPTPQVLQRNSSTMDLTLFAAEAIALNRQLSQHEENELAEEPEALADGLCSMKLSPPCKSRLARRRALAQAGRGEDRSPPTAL

[27] = target: Ribosomal protein S6 kinase alpha-4 (Homo sapiens) (UniProt O75676); assay: Inhibition of MSK2 (unknown origin) at 1 uM
[28] = target: Serine/threonine-protein kinase Nek7 (Homo sapiens) (UniProt Q8TDX7); assay: Inhibition of NEK7 (unknown origin) at 1 uM
Chain of Serine/threonine-protein kinase Nek7 (Homo sapiens) (Q8TDX7 whole entry, looked up): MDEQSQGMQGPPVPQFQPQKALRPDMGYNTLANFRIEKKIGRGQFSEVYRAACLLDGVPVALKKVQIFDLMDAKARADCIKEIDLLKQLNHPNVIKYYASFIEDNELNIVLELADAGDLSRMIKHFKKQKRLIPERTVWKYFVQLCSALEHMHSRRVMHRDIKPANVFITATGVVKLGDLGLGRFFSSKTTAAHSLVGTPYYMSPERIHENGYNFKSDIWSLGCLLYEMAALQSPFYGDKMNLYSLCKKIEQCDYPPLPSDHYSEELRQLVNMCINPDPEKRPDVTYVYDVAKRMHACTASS

[29] = target: Serine/threonine-protein kinase PAK 1 (Homo sapiens) (UniProt Q13153); assay: Inhibition of PAK1 (unknown origin) at 1 uM
[30] = target: Serine/threonine-protein kinase PAK 6 (Homo sapiens) (UniProt Q9NQU5); assay: Inhibition of PAK6 (unknown origin) at 1 uM
Chain of Serine/threonine-protein kinase PAK 6 (Homo sapiens) (Q9NQU5 whole entry, looked up): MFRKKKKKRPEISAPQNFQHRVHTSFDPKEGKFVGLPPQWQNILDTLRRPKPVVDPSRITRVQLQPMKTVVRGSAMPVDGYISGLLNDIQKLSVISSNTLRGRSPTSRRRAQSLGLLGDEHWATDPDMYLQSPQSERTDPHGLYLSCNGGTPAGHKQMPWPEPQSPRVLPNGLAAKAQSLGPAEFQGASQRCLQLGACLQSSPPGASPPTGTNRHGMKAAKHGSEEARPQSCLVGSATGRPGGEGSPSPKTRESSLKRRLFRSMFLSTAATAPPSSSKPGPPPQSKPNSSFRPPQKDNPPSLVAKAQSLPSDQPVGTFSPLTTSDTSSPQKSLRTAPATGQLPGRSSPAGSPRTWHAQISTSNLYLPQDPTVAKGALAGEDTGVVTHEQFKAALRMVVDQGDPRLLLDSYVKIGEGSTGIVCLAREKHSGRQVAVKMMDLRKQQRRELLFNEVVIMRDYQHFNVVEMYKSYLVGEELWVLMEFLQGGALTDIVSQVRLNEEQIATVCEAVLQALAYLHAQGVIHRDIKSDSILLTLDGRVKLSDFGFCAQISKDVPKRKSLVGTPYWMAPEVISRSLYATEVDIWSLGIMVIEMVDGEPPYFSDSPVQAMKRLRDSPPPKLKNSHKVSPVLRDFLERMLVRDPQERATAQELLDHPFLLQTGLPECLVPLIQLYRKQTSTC

[31] = target: Protein kinase C eta type (Homo sapiens) (UniProt P24723); assay: Inhibition of PKCeta (unknown origin)at 1 uM
[32] = target: Protein kinase C gamma type (Homo sapiens) (UniProt P05129); assay: Inhibition of PKCgamma (unknown origin)at 1 uM
[33] = target: Protein kinase C iota type (Homo sapiens) (UniProt P41743); assay: Inhibition of PKCiota (unknown origin)at 1 uM
Chain of Protein kinase C iota type (Homo sapiens) (P41743 whole entry): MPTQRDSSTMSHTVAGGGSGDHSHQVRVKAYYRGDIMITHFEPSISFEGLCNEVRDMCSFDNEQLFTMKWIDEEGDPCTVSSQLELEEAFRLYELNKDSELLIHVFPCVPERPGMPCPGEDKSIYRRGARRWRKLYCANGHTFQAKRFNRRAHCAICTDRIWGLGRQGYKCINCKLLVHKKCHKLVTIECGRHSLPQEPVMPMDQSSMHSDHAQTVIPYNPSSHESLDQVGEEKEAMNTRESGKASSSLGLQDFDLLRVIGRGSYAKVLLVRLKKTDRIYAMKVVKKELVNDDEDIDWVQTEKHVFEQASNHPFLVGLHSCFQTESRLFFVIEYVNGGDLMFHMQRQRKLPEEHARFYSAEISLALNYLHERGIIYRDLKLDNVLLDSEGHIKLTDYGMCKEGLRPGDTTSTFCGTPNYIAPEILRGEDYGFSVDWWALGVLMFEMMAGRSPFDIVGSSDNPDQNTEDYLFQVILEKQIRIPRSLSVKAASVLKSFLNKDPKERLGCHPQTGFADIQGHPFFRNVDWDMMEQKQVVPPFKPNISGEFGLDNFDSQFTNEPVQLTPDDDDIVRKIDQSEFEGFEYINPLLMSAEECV

[34] = target: Protein kinase C theta type (Homo sapiens) (UniProt Q04759); assay: Inhibition of PKCtheta (unknown origin) at 1 uM
[35] = target: cGMP-dependent protein kinase 1 (Homo sapiens) (UniProt Q13976); assay: Inhibition of PKG1beta (unknown origin) at 1 uM
[36] = target: Proto-oncogene tyrosine-protein kinase receptor Ret (Homo sapiens) (UniProt P07949); assay: Inhibition of RET (unknown origin) at 1 uM
[37] = target: Proto-oncogene tyrosine-protein kinase ROS (Homo sapiens) (UniProt P08922); assay: Inhibition of ROS (unknown origin) at 1 uM
[38] = target: Citron Rho-interacting kinase (Homo sapiens) (UniProt O14578); assay: Inhibition of STK21 (unknown origin) at 1 uM
[39] = target: Serine/threonine-protein kinase 32C (Homo sapiens) (UniProt Q86UX6); assay: Inhibition of STK32C (unknown origin) at 1 uM
Chain of Serine/threonine-protein kinase 32C (Homo sapiens) (Q86UX6 whole entry): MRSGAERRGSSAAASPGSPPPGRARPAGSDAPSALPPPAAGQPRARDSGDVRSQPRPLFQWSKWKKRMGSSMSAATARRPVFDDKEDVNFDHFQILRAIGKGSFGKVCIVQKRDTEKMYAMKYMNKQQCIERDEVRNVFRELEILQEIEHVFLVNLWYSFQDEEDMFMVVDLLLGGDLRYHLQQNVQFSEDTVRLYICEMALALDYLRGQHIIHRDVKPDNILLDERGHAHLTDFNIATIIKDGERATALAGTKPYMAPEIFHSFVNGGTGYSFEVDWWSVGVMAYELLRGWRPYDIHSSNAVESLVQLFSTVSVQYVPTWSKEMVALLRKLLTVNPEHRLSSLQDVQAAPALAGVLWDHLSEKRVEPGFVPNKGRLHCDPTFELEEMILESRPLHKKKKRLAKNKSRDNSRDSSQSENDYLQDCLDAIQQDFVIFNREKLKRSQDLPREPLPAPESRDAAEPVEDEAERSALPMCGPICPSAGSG

[40] = target: Serine/threonine-protein kinase TBK1 (Homo sapiens) (UniProt Q9UHD2); assay: Inhibition of TBK1 (unknown origin) at 1 uM
[41] = target: Testis-specific serine/threonine-protein kinase 3 (Homo sapiens) (UniProt Q96PN8); assay: Inhibition of TSSK3 (unknown origin) at 1 uM
[42] = target: Tau-tubulin kinase 1 (Homo sapiens) (UniProt Q5TCY1); assay: Inhibition of TTBK1 (unknown origin) at 1 uM
[43] = target: Non-receptor tyrosine-protein kinase TYK2 (Homo sapiens) (UniProt P29597); assay: Inhibition of TYK2 (unknown origin) at 1 uM
Chain of Non-receptor tyrosine-protein kinase TYK2 (Homo sapiens) (P29597 whole entry): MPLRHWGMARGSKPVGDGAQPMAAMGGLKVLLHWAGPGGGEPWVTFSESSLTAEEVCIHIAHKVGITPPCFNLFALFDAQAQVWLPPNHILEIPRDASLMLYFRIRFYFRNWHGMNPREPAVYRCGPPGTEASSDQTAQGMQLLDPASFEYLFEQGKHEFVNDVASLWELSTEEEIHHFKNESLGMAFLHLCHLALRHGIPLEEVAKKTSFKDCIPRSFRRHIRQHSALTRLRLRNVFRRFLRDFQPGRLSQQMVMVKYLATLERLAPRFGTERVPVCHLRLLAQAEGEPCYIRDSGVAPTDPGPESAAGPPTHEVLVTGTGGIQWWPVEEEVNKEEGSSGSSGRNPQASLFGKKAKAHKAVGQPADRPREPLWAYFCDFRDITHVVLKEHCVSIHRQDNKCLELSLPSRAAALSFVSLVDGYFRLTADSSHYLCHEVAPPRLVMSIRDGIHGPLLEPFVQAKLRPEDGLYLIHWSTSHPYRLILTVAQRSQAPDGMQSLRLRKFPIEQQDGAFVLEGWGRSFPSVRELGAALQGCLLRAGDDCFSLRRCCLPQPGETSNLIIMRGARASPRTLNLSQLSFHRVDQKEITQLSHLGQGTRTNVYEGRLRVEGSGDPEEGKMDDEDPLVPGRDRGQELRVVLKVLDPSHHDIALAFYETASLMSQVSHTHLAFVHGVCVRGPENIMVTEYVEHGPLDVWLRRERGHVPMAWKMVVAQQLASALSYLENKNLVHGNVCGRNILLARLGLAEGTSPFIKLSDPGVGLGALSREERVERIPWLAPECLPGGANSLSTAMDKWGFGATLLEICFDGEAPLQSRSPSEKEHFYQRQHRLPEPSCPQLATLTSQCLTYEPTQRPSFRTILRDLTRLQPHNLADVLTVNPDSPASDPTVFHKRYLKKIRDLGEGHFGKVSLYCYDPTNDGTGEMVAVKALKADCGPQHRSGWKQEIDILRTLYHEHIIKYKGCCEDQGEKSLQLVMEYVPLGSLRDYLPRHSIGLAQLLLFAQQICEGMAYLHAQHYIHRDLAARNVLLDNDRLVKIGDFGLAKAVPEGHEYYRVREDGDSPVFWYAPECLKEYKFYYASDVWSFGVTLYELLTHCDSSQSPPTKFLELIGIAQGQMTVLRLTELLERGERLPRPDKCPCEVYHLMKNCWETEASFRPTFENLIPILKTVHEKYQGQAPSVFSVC

Structure (SMILES): OCCOCc1cn(CCNc2nonc2/C(=N/O)Nc2ccc(F)c(Br)c2)nn1
- inhibition (PBMC): Active
- half-life [1]: 36.6 min
- microsomal CLint [2]: 245 µL/min/mg
- fraction unbound [3]: 0.0763
- fraction unbound [4]: 0.0498
- inhibition [5]: inactive
- inhibition [6]: inactive
- inhibition [7]: inactive
- inhibition [8]: inactive
- inhibition [9]: inactive
- inhibition [10]: inactive
- inhibition [11]: inactive
- inhibition [12]: inactive
- inhibition [13]: inactive
- inhibition [14]: inactive
- inhibition [15]: inactive
- inhibition [16]: inactive
- inhibition [17]: inactive
- inhibition [18]: inactive
- inhibition [19]: inactive
- inhibition [20]: inactive
- inhibition [21]: inactive
- inhibition [22]: inactive
- inhibition [23]: inactive
- inhibition [24]: inactive
- inhibition [25]: inactive
- inhibition [26]: inactive
- inhibition [27]: inactive
- inhibition [28]: inactive
- inhibition [29]: inactive
- inhibition [30]: inactive
- inhibition [31]: inactive
- inhibition [32]: inactive
- inhibition [33]: inactive
- inhibition [34]: inactive
- inhibition [35]: inactive
- inhibition [36]: inactive
- inhibition [37]: inactive
- inhibition [38]: inactive
- inhibition [39]: inactive
- inhibition [40]: inactive
- inhibition [41]: inactive
- inhibition [42]: inactive
- inhibition [43]: inactive
